Measured values published in patent US9549914B2, “Treatment of human cytomegalovirus by modulating Wnt” (priority 2014, dated 2017).
Read-outs that look alike come from different tables or passages of the source.

Key:
[1] = in vitro; conditions: human
Description: (§3) Cell viability was determined using a colorimetric MTT cell proliferation assay following manufacturer's instructions (Sigma-Aldrich, St. Louis, Mo.). HFFs were treated with varying concentrations of monensin, nigericin, and salinomycin and incubated at 37° C. for 3 days. After the addition of 20 μl/well of MTT (3-(4,5-Dimethyl-2-thiazolyl)-2,5-diphenyl-2H-tetrazolim bromide) (5 mg/ml in PBS), and shaking at 150 rpm for 5 minutes the plates were incubated at 37° C. for 3 hours. Conversion of yellow solution into dark blue formazan by mitochondrial dehydrogenases of living cells was quantified by measuring absorbance at 570 nm. Viable cells in culture medium containing vehicle alone (0.1% DMSO) were referred to as 100% cell viability. For each cell type used for virus infection and drug treatment, the MTT assay was performed at the same time points as the antiviral assay.

[2] = in vitro; conditions: human; remark: listed apart in the source
Description: as §3

[3] = tested on: GCV-resistant HCMV strain (UL97 mutation H520Q); assay: GCV-resistant HCMV strain, virus DNA yield by real-time PCR; format: cell-based, Human Cytomegalovirus (HCMV); conditions: Human betaherpesvirus 5, read-out: EC50 against GCV-resistant HCMV strain
Description: HFFs cells were infected with a GCV-resistant HCMV and treated with monensin (0.01 μM-1 μM), nigericin (0.005 μM-0.5 μM), salinomycin (0.03 μM-10 μM) or GCV (1 μM-30 μM). Virus DNA yield was quantified by real-time PCR in supernatants of infected cells 96 hpi. Data represent mean values (±SD) of triplicate determinations from two independent experiments.
The quantitative CMV real-time PCR assay is based on detection of a 151 bp region from the highly conserved US17 gene (16). The limit of detection of the assay is 100 copies/mL (3.0 copies/reaction), and the measurable range is 2.4-8.0 log10 copies/mL. […] Quantification standards were prepared by cloning the US17 amplicon in the pCR®2.1-TOPO® plasmid vector (Invitrogen, Carlsbad, Calif.). […] Assay controls included quantified CMV AD 169 DNA (Advanced Biotechnologies Inc.) and quantified Towne CMV at 3.0 and 5.0 log10 copies/mL. Quantitative CMV data were expressed as viral DNA copies per milliliter. The real-time PCR was used for quantification of HCMV replication in cell lysates at 48 hpi, virus DNA yield in supernatants at 96 hpi and for a reversibility assay (14, 16).

[4] = tested on: HCMV; assay: Reversibility of HCMV inhibition, real-time PCR in supernatants; format: cell-based, Human Cytomegalovirus (HCMV); conditions: treated 1, 2 or 3 days, then fresh media; HCMV DNA in supernatants at day 6 post infection
From the text: FIG. 4: Effects of monensin, nigericin, salinomycin and GCV on replication characteristics. A. Reversibility of HCMV replication: Compounds were present in HCMV-infected HFFs at the indicated intervals in days. Virus DNA was quantified by real-time PCR in supernatants at 6 days post infection. Data represent mean values (±SD) of triplicate determinations from two independent experiments. B. Inhibition of DNA replication, pp28 expression and virus DNA yield: DNA replication was quantified by real-time PCR in cells collected 48 hpi. Pp28-luciferase activity was measured in cell lysates collected at 72 hpi. Virus DNA yield was measured by real-time PCR in supernatants of infected cells collected at 96 hpi. The concentration of compounds was: 0.1 μM for monensin and nigericin, 1 μM for salinomycin and 10 μM for GCV. Data represent mean values (±SD) of triplicate determinations from two independent experiments.
The quantitative CMV real-time PCR assay is based on detection of a 151 bp region from the highly conserved US17 gene (16). The limit of detection of the assay is 100 copies/mL (3.0 copies/reaction), and the measurable range is 2.4-8.0 log10 copies/mL. The PCR was performed using a total reaction volume of 50 μL, including TaqMan 2× Universal PCR Master Mix (Applied Biosystems, Foster City, Calif.), primers (300 nM final concentration), FAM-labeled probe (200 nM final concentration), dH2O, and template (10 μl). Amplification was performed on a 7500 Real-Time PCR System (Applied Biosystems, Foster City, Calif.). PCR conditions were: 50° C. for 2 min, 95° C. for 10 min, 40 cycles of 95° C. for 15 s and 60° C. for 60 s. Quantification standards were prepared by cloning the US17 amplicon in the pCR®2.1-TOPO® plasmid vector (Invitrogen, Carlsbad, Calif.). Serial 10-fold dilutions of plasmid from 7.0 to 1.0 log10 copies/reaction were included with each assay and used to establish a standard curve. The slope and R^2 of the standard curve were −3.3±0.1 and >0.990, respectively. Assay controls included quantified CMV AD 169 DNA (Advanced Biotechnologies Inc.) and quantified Towne CMV at 3.0 and 5.0 log10 copies/mL. Quantitative CMV data were expressed as viral DNA copies per milliliter. The real-time PCR was used for quantification of HCMV replication in cell lysates at 48 hpi, virus DNA yield in supernatants at 96 hpi and for a reversibility assay (14, 16).
To test whether HCMV inhibition by monensin, nigericin and salinomycin was reversible, infected HFFs were treated for 1, 2, or 3 days followed by removal of the media containing the compounds, and adding fresh media until 6 days post infection. HCMV DNA was quantified in supernatants of infected cells at day 6 post infection by real-time PCR.

[5] = in vitro; conditions: human; remark: listed apart in the source
Description: as §3

[6] = tested on: pp28-luciferase HCMV Towne strain; assay: microbe, parasite or virus in culture; format: cell-based, Human Cytomegalovirus (HCMV); conditions: for SI (selectivity index): HCMV in HFFs, mean ± SD; for EC50: Human betaherpesvirus 5, read-out: EC50 (μM), anti-HCMV activity
Description: The pp28-luciferase HCMV Towne strain was constructed as previously described (14). This virus expresses luciferase under the control of the late CMV gene promoter, pp28. Luciferase expression is strongly activated 48-72 hours post infection (hpi). […] A GCV-resistant HCMV strain was obtained from a patient with CMV disease. […] Human herpes virus strains were: luciferase HSV1-KOS/Dlux/oriS (15) and clinical isolates of HSV1 and HSV2. All clinical isolates were provided by the clinical virology laboratory with no identifiers that can link to a specific subject. The Johns Hopkins Office of Human Subject Research Institutional Review Board determined that this research qualified for an exemption.
Human Foreskin Fibroblasts (HFFs) passage 12-16 (ATCC, CRL-2088™) were grown in Dulbecco's Modified Eagle Medium (DMEM) containing 10% fetal bovine serum (FBS) (Gibco, Carlsbad, Calif.) in a 5% CO2 incubator at 37° C. and used for infection with HCMV or HSV at multiplicity of infection of 1 PFU/cell (MOI=1) unless otherwise specified. Following 90 minute adsorption (60 min for HSV), media was removed and cells were washed with PBS. DMEM with 4% FBS containing compounds was added to each well. For HCMV, infected, treated HFFs were collected at 72 hpi and lysates were assayed for luciferase activity using a luciferase assay kit (Promega, Madison, Wis.) on GloMax®-Multi+ Detection System (Promega) according to manufacturer's instructions.

[7] = tested on: luciferase HSV1-KOS/Dlux/oriS; assay: HSV1-KOS/Dlux/oriS yield reduction assay in HFFs; format: cell-based; conditions: Human alphaherpesvirus 1, 16 h, read-out: HSV1 EC50 (μM) Yield Reduction (HFFs)
[8] = tested on: HSV1 clinical isolates; assay: HSV1 plaque assay in Vero cells; format: cell-based; conditions: read-out: HSV1 EC50 (μM) Plaque Number (Vero)
[9] = tested on: Wnt/β-catenin signaling proteins; assay: Western blot of Wnt/β-catenin signaling proteins in HSV1-infected HFFs; format: cell-based, Human; conditions: 48 hpi with HSV1-KOS (Dlux/OriS), concentrations resulting in full HCMV inhibition
Description: FIG. 7: Effect of monensin, nigericin and salinomycin on expression of Wnt/β-catenin signaling proteins in non-infected and HSV1-infected HFFs. FIG. 7A: Expression of Wnt5a/b, Axin1, β-catenin, and actin (control) in non-infected (Mock), and HSV1-infected HFFs (MOI=0.1) treated with monensin (0.1 μM), nigericin (0.1 μM), salinomycin (1 μM) and GCV (10 μM) was determined after 48 h. Representative data from three independent experiments is shown. FIG. 7B: Expression of Wnt5a/b, Axin1, β-catenin, and actin (control) in non-infected (Mock), and HSV1-infected HFFs (MOI=0.1) treated with monensin (0.2 μM), nigericin (0.2 μM) and salinomycin (2 μM) and GCV (10 μM) was determined after 48 h. Representative data from three independent experiments is shown.
(§1) Cell lysates were quantified for protein content using bicinchoninic acid (BCA) protein assay kit (Pierce Chemical, Rockford, Ill.). Equivalent amount of proteins were mixed with an equal volume of 2× sample buffer (125 mM Tris-HCL, pH 6.8, 4% SDS, 20% glycerol and 5% β-mercaptoethanol) and boiled at 100° C. for 10 min (except for Wnt and pWnt detection for which samples were not boiled). Denatured proteins were resolved in Tris-glycine polyacrylamide gels (10-12%) and transferred to polyvinylidine difluoride (PVDF) membranes (Bio-Rad Laboratories, Hercules, Calif.) by electroblotting. Membranes were incubated in blocking solution [5% non-fat dry milk and 0.1% Tween-20 in PBS (PBST)] for 1 hr, washed three times with PBST, and incubated with appropriately diluted primary antibodies at 4° C. overnight. Membranes were washed with PBST and incubated with horseradish peroxidase-conjugated secondary antibodies in PBST for 1 hr at room temperature. Following washing with PBST, protein bands were visualized by chemiluminescence using SuperSignal West Dura and Pico reagents (Pierce Chemical, Rockford, Ill.). The following antibodies were used for detection of CMV proteins: mouse anti-IE1 and IE2, (MAb810); mouse anti-beta-actin antibody (Millipore, Billerica, Mass.); mouse anti-UL44 (Santa Cruz biotechnology Santa Cruz, Calif.); mouse anti-pp65 (Vector laboratories, Burlingame, Calif.); horseradish peroxidase (HRP)-conjugated anti-rabbit IgG (Cell Signaling Technology, Beverly, Mass.); and HRP-conjugated anti-mouse IgG, (GE Healthcare, Waukesha, Wis.). The following antibodies were used for detection of proteins in the Wnt pathway: anti-Wnt5a/b, Wnt, phospho-Wnt, Dvl2, Dvl3 and axin1 (Cell Signaling), β-catenin (E-5) (Santa Cruz biotechnology).

[10] = tested on: HCMV; assay: HCMV yield reduction (infectious virus released into medium, plaques); format: cell-based, Human Cytomegalovirus (HCMV)
[11] = tested on: HSV2 clinical isolates; assay: HSV2 plaque assay in Vero cells; format: cell-based; conditions: read-out: HSV2 EC50 (μM) Plaque Number (Vero)
[12] = tested on: Wnt/β-catenin signaling proteins; assay: Western blot of Wnt-signaling proteins in non-infected and HCMV-infected HFFs; format: cell-based, Human; conditions: 100 nM
Description: (§2) FIG. 5: Effect of Nigericin and GCV on expression of HCMV and Wnt/β-catenin signaling proteins. A. Expression of HCMV proteins in infected HFFs treated with nigericin (100 nM) and GCV (10 μM). Compounds were added after virus adsorption and cell lysates were collected for western blot at 24, 48 and 72 hpi. Control-no treatment. B. Expression of Wnt-signaling proteins was determined in non-infected (Mock), and HCMV-infected HFFs treated with nigericin (100 nM) and GCV (10 μM) at indicated time points. Representative data from three independent experiments are shown.
as §1

[13] = tested on: HCMV proteins (IE1, IE2, UL44, pp65); assay: Western blot of HCMV proteins in infected HFFs; format: cell-based, Human Cytomegalovirus (HCMV)
Description: as §2, §1

[14] = Human alphaherpesvirus 1, 48 h, Vero cells, 200 PFU/well, plaques counted after 2 days
[15] = infected HFFs treated at 0.1 μM
[16] = Human alphaherpesvirus 2, 48 h, Vero cells, 200 PFU/well, plaques counted after 2 days
[17] = non-infected and HCMV-infected HFFs, all time points (24, 48, 72 hpi)

Compound | CC50 at 3 days [2] [nM] | reversibility of HCMV inhibition [4] | SI (selectivity index) [6] | EC50 [6] [µM] | EC50 [7] [µM] | EC50 [8, 14] [µM] | expression of Wnt 5a/b in HSV1-infected HFFs [9] | expression of axin 1 in HSV1-infected HFFs [9] | expression of β-catenin in HSV1-infected HFFs [9] | infectious virus released into the medium (yield reduction), plaques [10, 15] | EC50 [11, 16] [µM] | other results
Nc1nc(O)c2ncn(COC(CO)CO)c2n1 [GCV, ganciclovir] | 247000 ± 33400 | fully reversible | 96 ± 14 | 2.7 ± 0.1 | – | – | – | – | – | – | – | CC50 [1]: > 100000 nM; EC50 [3]: 7600 nM; CC50 [5]: > 100000 nM
CC[C@@]1([C@@H]2O[C@@H]([C@H]3O[C@@](O)(CO)[C@H](C)C[C@@H]3C)C[C@@H]2C)CC[C@H]([C@]2(C)CC[C@]3(C[C@H](O)[C@@H](C)[C@@H]([C@@H](C)[C@@H](OC)[C@H](C)C(=O)O)O3)O2)O1 [Monensin] | 3370 ± 520 | weak irreversible inhibition | 138 ± 14 | 0.02 | 0.08 | 1.6 ± 0.14 | inhibition | did not reduce | did not reduce | complete absence of plaques | 0.34 ± 0.04 | –
CO[C@@H]1C[C@@H](C[C@H]2CC[C@H](C)[C@H]([C@@H](C)C(=O)O)O2)O[C@]2(O[C@](C)([C@H]3CC[C@@](C)([C@@H]4O[C@@H]([C@H]5O[C@@](O)(CO)[C@H](C)C[C@@H]5C)C[C@@H]4C)O3)C[C@H]2C)[C@@H]1C [Nigericin, nigericin] | 3350 ± 770 | weak irreversible inhibition | 139 ± 23 | 0.02 | 0.08 | 0.63 | inhibition | did not reduce | did not reduce | complete absence of plaques | 0.16 ± 0.05 | β-catenin levels ([12]; effect increased from 24 to 48 and 72 hpi): significant decrease; expression of Wnt [12, 17]: decreased expression; expression of Wnt 5a/b [12, 17]: decreased expression; expression of axin 1 [12, 17]: decreased expression; expression of pWnt [12, 17]: decreased expression; expression of the late HCMV gene pp65 ([13]; 100 nM): significant inhibition; IE1 expression ([13]; 100 nM, 24, 48 and 72 hpi): no obvious inhibition; IE2 expression ([13]; 100 nM, 24, 48 and 72 hpi): major inhibition; UL44 expression ([13]; 100 nM, 24, 48 and 72 hpi): major inhibition
CC[C@@H](C(=O)[C@@H](C)[C@@H](O)[C@H](C)[C@@H]1O[C@@H]([C@@H](CC)C(=O)O)CC[C@@H]1C)[C@H]1O[C@]2(C=C[C@@H](O)[C@]3(CC[C@@](C)([C@H]4CC[C@](O)(CC)[C@H](C)O4)O3)O2)[C@H](C)C[C@@H]1C [Salinomycin, salinomycin] | 28400 ± 5900 | fully reversible | 143 ± 18 | 0.2 ± 0.01 | 0.6 ± 0.1 | – | inhibition | did not reduce | did not reduce | – | – | EC50 ([8]; Human alphaherpesvirus 1, Vero, 48 h): 0.58 ± 0.07 µM; infectious virus released into the medium (yield reduction), plaques ([10]; infected HFFs treated at 1 μM): complete absence of plaques; EC50 ([11]; Human alphaherpesvirus 2, Vero, 48 h): 0.07 ± 0.03 µM
